Measurements published in patent publication US20250140406A1, “CLASSIFYING TUMORS AND PREDICTING RESPONSIVENESS” (Oncocyte Corporation, priority 2022, published 2025).

Tests used:
[1] = test system: cancer cell lines classified IM, MSL, M; test: PRISM screen compound sensitivity correlated with IM, MSL and M subtype of cell lines (101 gene signature); assay type: cell-based; conditions: for IM Corr test: correlation of PRISM compound sensitivity with IM subtype correlation; for M Corr test: correlation of PRISM compound sensitivity with M subtype correlation; for MSL Corr test: correlation of PRISM compound sensitivity with MSL subtype correlation; for TNBCType train / TNBCType test: classification of association of compound sensitivity with IM, MSL and M cell line classes; for TNBCType train: training data set; for TNBCType test: test data set
[2] = test system: cancer cell lines, DetermaIO classes; test: Association of PRISM compound sensitivity with DetermaIO (DTIO) cell line classes; assay type: cell-based
[3] = correlation of PRISM compound sensitivity with DTIO, test cell set
[4] = correlation of PRISM compound sensitivity with DTIO, training cell set
[5] = correlation of PRISM compound sensitivity with DTIO, test cell set (188 cell lines)
[6] = correlation of PRISM compound sensitivity with DTIO, training cell set (371 cell lines)
[7] = association of compound sensitivity with DetermaIO classes, test data set
[8] = association of compound sensitivity with DetermaIO classes, training data set

SMILES	TNBCType train [1]	DTIO Corr test [2, 7]	DTIO Corr train [2, 8]	TNBCType test [1]	also measured
NC(=O)CCCCn1ccc(NC(N)=NCC(F)(F)F)n1 [ICI-162846]					IM Corr test ([1]; test cell set (188 cell lines)): −0.1537; M Corr test ([1]; test cell set (188 cell lines)): 0.1647; MSL Corr test ([1]; test cell set (188 cell lines)): 0.0517; DTIO Corr test [2, 3]: −0.05711; DTIO Corr train [2, 4]: −0.09255
O=C(O)CNC(=O)c1c(O)c2ccccc2n(Cc2ccccc2)c1=O [IOX2]					IM Corr test ([1]; test cell set (188 cell lines)): −0.04037; M Corr test ([1]; test cell set (188 cell lines)): 0.09066; MSL Corr test ([1]; test cell set (188 cell lines)): 0.01906; DTIO Corr test [2, 5]: −0.06501; DTIO Corr train [2, 6]: −0.0409
Cc1cc(C)cc(C(=O)N(C)[C@H](Cc2ccc(-c3ccccc3)cc2)C(=O)N[C@@H](Cc2c[nH]c3ccccc23)C(=O)O)c1 [IRL-2500]					IM Corr test ([1]; test cell set (188 cell lines)): −0.01191; M Corr test ([1]; test cell set (188 cell lines)): 0.007861; MSL Corr test ([1]; test cell set (188 cell lines)): −0.1214; DTIO Corr test [2, 5]: 0.02691; DTIO Corr train [2, 6]: −0.06473
O=C(Nc1ccc(C(F)(F)F)cn1)N1CCN(c2ncccc2C(F)(F)F)CC1 [JNJ-17203212]					IM Corr test ([1]; test cell set): −0.03139; M Corr test ([1]; test cell set): 0.03655; MSL Corr test ([1]; test cell set): 0.142; DTIO Corr test [2, 3]: −0.00666; DTIO Corr train [2, 4]: −0.1037
CCCCCOc1c(OC)ccc2cc(C(=O)NCc3ccc4c(c3)OCO4)c(=O)[nH]c12 [JTE-907]					IM Corr test ([1]; test cell set (188 cell lines)): −0.05167; M Corr test ([1]; test cell set (188 cell lines)): 0.08725; MSL Corr test ([1]; test cell set (188 cell lines)): −0.01924; DTIO Corr test ([2]; correlation of PRISM compound sensitivity with DTIO (DetermaIO), test cell set (188 cell lines)): −0.04389; DTIO Corr train ([2]; correlation of PRISM compound sensitivity with DTIO (DetermaIO), training cell set (371 cell lines)): −0.131
Clc1ccc(C2(c3ccc(-c4cn[nH]c4)cc3)CCNCC2)cc1 [K12040459]	MSL	0.003574	0.04812		
C[C@@H]1NC(C)(C)CO[C@@]1(O)c1cccc(Cl)c1 [K13394247]		−0.04236	0.0598	MSL	
C[C@@H](Oc1ccc2[nH]nc(/C=C/c3cnn(CCO)c3)c2c1)c1c(Cl)cncc1Cl [K17203476]		−0.0838	−0.1449	MSL	
O=C(NCc1cccc(O)c1)Nc1nc(-c2ccncc2)cs1 [K19333160]	MSL	0.08122	0.04633	MSL	
COc1cc(Nc2ncc(F)c(Nc3ccc4c(n3)NC(=O)C(C)(C)O4)n2)cc(OC)c1OC [K20285085]	MSL	−0.04153	−0.1076	MSL	
COc1cc(-c2ccc(=O)[nH]n2)ccc1OC(F)F [K37561857]		0.1699	0.1782	MSL	
COc1cc2nccc(Oc3ccc(NC(=O)NC4CC4)c(Cl)c3)c2cc1C(N)=O [K39974922]	MSL	0.002695	−0.03256		
Nc1cc(F)ccc1NC(=O)/C=C/c1cnn(C/C=C/c2ccccc2)c1 [K61688984]	MSL	−0.02541	0.06912		
O=C(O)C[C@H](O)C[C@H](O)/C=C/c1c(C2CC2)nc2ccccc2c1-c1ccc(F)cc1 [K75958547]	MSL	−0.0837	−0.04476		
COc1cc(OC)cc(N(CCNC(C)C)c2ccc3ncc(-c4cnn(C)c4)nc3c2)c1 [K84868168]	MSL	0.006092	−0.0744		
CC[C@H](C)C(=O)O[C@H]1CCC=C2C=C[C@H](C)[C@H](CC[C@@H]3C[C@@H](O)CC(=O)O3)[C@H]21 [K94441233]	MSL	−0.09323	−0.00119	MSL	
COc1cc2nccc(Oc3ccc(NC(=O)Nc4ccc(F)cc4F)c(F)c3)c2cc1OC [KI-8751]					IM Corr test ([1]; test cell set): 0.1039; M Corr test ([1]; test cell set): −0.09761; MSL Corr test ([1]; test cell set): 0.006054; DTIO Corr test [2, 3]: 0.03732; DTIO Corr train [2, 4]: 0.02512
